Measured values taken from patent publication US6822146B2, “Sulfonylurea-tolerant sunflower line M7” (priority 2000, dated 2004).

Assays:
BC2-M3M12 = assay: Test G control of volunteer sunflower, BC2-M3M12; format: in vivo; settings: rated 4 weeks after application, scale 0-100
[1] = tested on: H89A × RHA274 (sulfonylurea-susceptible hybrid); assay: Test G control of volunteer sunflower, H89A × RHA274; format: in vivo; settings: rated 4 weeks after application, scale 0-100
BC2-M3M11 = assay: Test G control of volunteer sunflower, BC2-M3M11; format: in vivo; settings: rated 4 weeks after application, scale 0-100
[2] = tested on: mutants originating from M11 and M12; settings: Test G rates
Excerpt: This test involved sulfonylurea-resistant sunflower progeny BC2-M3M11 and BC2-M3M12, derived from M11 and M12, respectively. Also, a sulfonylurea-susceptible hybrid, H89A×RHA274, was included for comparison. Plants were sprayed with formulated herbicides at the 4-leaf stage. The efficacy of the treatments on the sunflowers was visually rated 4 weeks after application, using a scale where 0 means no control of the sunflowers, 85 means sufficient efficacy level to stop plants from flowering and propagating, and 100 means a complete destruction of the mutants.
Weed control in sugar beet requires 2-3 herbicide applications per season to efficiently control weeds in this slow growing crop.

| SMILES | Efficacy on BC2-M3M12 (BC2-M3M12; 530 g a.i./ha) | Efficacy on H89A × RHA274 ([1]; 530 g a.i./ha) | Efficacy on BC2-M3M11 (BC2-M3M11; 530 g a.i./ha) | efficacy against the mutants [2] | Efficacy on BC2-M3M12 (BC2-M3M12; 240 g a.i./ha) | Efficacy on H89A × RHA274 ([1]; 240 g a.i./ha) | Efficacy on BC2-M3M11 (BC2-M3M11; 240 g a.i./ha) | control of sulfonylurea-susceptible or sulfonylurea-resistant volunteer sunflowers ([2]; phenmedipham alone or combined with triflusulfuron-methyl) |
| --- | --- | --- | --- | --- | --- | --- | --- | --- |
| O=C(O)COc1ccc(Cl)cc1Cl [2,4-D, 2,4-dichlorophenoxyacetic acid] | 100 | 100 | 100 | completely-destroyed |  |  |  |  |
| COC(=O)Nc1cccc(OC(=O)Nc2cccc(C)c2)c1 [Phenmedipham] |  |  |  |  | 7 | 0 | 0 | ineffective alone |
